# Results from ChEMBL document CHEMBL3044736, “Synthesis, characterization, solvatochromic properties, and antimicrobial evaluation of 5-acetyl-2-thioxo-dihydro-pyrimidine-4,6-dione-based chalcones” (2013).
# Assays:
# Assay type in all cases: functional
# Candida albicans [1] = assay: Antimicrobial activity against Candida albicans MTCC 227 assessed as diameter of growth inhibition zone at 100 ug/ml after 48-96 hr by agar cup diffusion method; conditions: read-out: DIZ
# Streptococcus pyogenes [2] = assay: Antimicrobial activity against Streptococcus pyogenes MTCC 442 by agar cup diffusion method
# Escherichia coli [3] = assay: Antimicrobial activity against Escherichia coli MTCC 443 assessed as diameter of growth inhibition zone at 25 ug/ml after 18-24 hr by agar cup diffusion method; conditions: read-out: DIZ
# Escherichia coli [4] = assay: Antimicrobial activity against Escherichia coli MTCC 443 by agar cup diffusion method
# Klebsiella pneumoniae [5] = assay: Antimicrobial activity against Klebsiella pneumoniae MTCC 109 assessed as diameter of growth inhibition zone at 25 ug/ml after 18-24 hr by agar cup diffusion method; conditions: read-out: DIZ
# Aspergillus clavatus [6] = assay: Antimicrobial activity against Aspergillus clavatus MTCC 1323 by agar cup diffusion method
# Streptococcus pyogenes [7] = assay: Antimicrobial activity against Streptococcus pyogenes MTCC 442 assessed as diameter of growth inhibition zone at 25 ug/ml after 18-24 hr by agar cup diffusion method; conditions: read-out: DIZ
# Aspergillus clavatus [8] = assay: Antimicrobial activity against Aspergillus clavatus MTCC 1323 assessed as diameter of growth inhibition zone at 250 ug/ml after 48-96 hr by agar cup diffusion method; conditions: read-out: DIZ
# Candida albicans [9] = assay: Antimicrobial activity against Candida albicans MTCC 227 assessed as diameter of growth inhibition zone at 50 ug/ml after 48-96 hr by agar cup diffusion method; conditions: read-out: DIZ
# Escherichia coli [10] = assay: Antimicrobial activity against Escherichia coli MTCC 443 assessed as diameter of growth inhibition zone at 250 ug/ml after 18-24 hr by agar cup diffusion method; conditions: read-out: DIZ
# Pseudomonas aeruginosa [11] = assay: Antimicrobial activity against Pseudomonas aeruginosa MTCC 1688 assessed as diameter of growth inhibition zone at 100 ug/ml after 18-24 hr by agar cup diffusion method; conditions: read-out: DIZ
# Klebsiella pneumoniae [12] = assay: Antimicrobial activity against Klebsiella pneumoniae MTCC 109 by agar cup diffusion method
# Candida albicans [13] = assay: Antimicrobial activity against Candida albicans MTCC 227 by agar cup diffusion method
# Staphylococcus aureus [14] = assay: Antimicrobial activity against Staphylococcus aureus MTCC 96 assessed as diameter of growth inhibition zone at 25 ug/ml after 18-24 hr by agar cup diffusion method; conditions: read-out: DIZ
# Candida albicans [15] = assay: Antimicrobial activity against Candida albicans MTCC 227 assessed as diameter of growth inhibition zone at 25 ug/ml after 48-96 hr by agar cup diffusion method; conditions: read-out: DIZ
# Pseudomonas aeruginosa [16] = assay: Antimicrobial activity against Pseudomonas aeruginosa MTCC 1688 assessed as diameter of growth inhibition zone at 25 ug/ml after 18-24 hr by agar cup diffusion method; conditions: read-out: DIZ
# Penicillium [17] = assay: Antimicrobial activity against Penicillium wild strain assessed as diameter of growth inhibition zone at 100 ug/ml after 48-96 hr by agar cup diffusion method; conditions: read-out: DIZ
# Streptococcus pyogenes [18] = assay: Antimicrobial activity against Streptococcus pyogenes MTCC 442 assessed as diameter of growth inhibition zone at 100 ug/ml after 18-24 hr by agar cup diffusion method; conditions: read-out: DIZ
# Staphylococcus aureus [19] = assay: Antimicrobial activity against Staphylococcus aureus MTCC 96 by agar cup diffusion method
# Pseudomonas aeruginosa [20] = assay: Antimicrobial activity against Pseudomonas aeruginosa MTCC 1688 by agar cup diffusion method
# Trichophyton rubrum [21] = assay: Antimicrobial activity against Trichophyton rubrum MTCC 296 by agar cup diffusion method
# Escherichia coli [22] = assay: Antimicrobial activity against Escherichia coli MTCC 443 assessed as diameter of growth inhibition zone at 100 ug/ml after 18-24 hr by agar cup diffusion method; conditions: read-out: DIZ
# Penicillium [23] = assay: Antimicrobial activity against Penicillium wild strain assessed as diameter of growth inhibition zone at 250 ug/ml after 48-96 hr by agar cup diffusion method; conditions: read-out: DIZ
# Staphylococcus aureus [24] = assay: Antimicrobial activity against Staphylococcus aureus MTCC 96 assessed as diameter of growth inhibition zone at 50 ug/ml after 18-24 hr by agar cup diffusion method; conditions: read-out: DIZ
# Streptococcus pyogenes [25] = assay: Antimicrobial activity against Streptococcus pyogenes MTCC 442 assessed as diameter of growth inhibition zone at 50 ug/ml after 18-24 hr by agar cup diffusion method; conditions: read-out: DIZ
# Trichophyton rubrum [26] = assay: Antimicrobial activity against Trichophyton rubrum MTCC 296 assessed as diameter of growth inhibition zone at 25 ug/ml after 48-96 hr by agar cup diffusion method; conditions: read-out: DIZ
# Pseudomonas aeruginosa [27] = assay: Antimicrobial activity against Pseudomonas aeruginosa MTCC 1688 assessed as diameter of growth inhibition zone at 50 ug/ml after 18-24 hr by agar cup diffusion method; conditions: read-out: DIZ
# Aspergillus clavatus [28] = assay: Antimicrobial activity against Aspergillus clavatus MTCC 1323 assessed as diameter of growth inhibition zone at 100 ug/ml after 48-96 hr by agar cup diffusion method; conditions: read-out: DIZ
# Staphylococcus aureus [29] = assay: Antimicrobial activity against Staphylococcus aureus MTCC 96 assessed as diameter of growth inhibition zone at 100 ug/ml after 18-24 hr by agar cup diffusion method; conditions: read-out: DIZ
# Trichophyton rubrum [30] = assay: Antimicrobial activity against Trichophyton rubrum MTCC 296 assessed as diameter of growth inhibition zone at 50 ug/ml after 48-96 hr by agar cup diffusion method; conditions: read-out: DIZ
# Trichophyton rubrum [31] = assay: Antimicrobial activity against Trichophyton rubrum MTCC 296 assessed as diameter of growth inhibition zone at 250 ug/ml after 48-96 hr by agar cup diffusion method; conditions: read-out: DIZ
# Aspergillus clavatus [32] = assay: Antimicrobial activity against Aspergillus clavatus MTCC 1323 assessed as diameter of growth inhibition zone at 25 ug/ml after 48-96 hr by agar cup diffusion method; conditions: read-out: DIZ
# Klebsiella pneumoniae [33] = assay: Antimicrobial activity against Klebsiella pneumoniae MTCC 109 assessed as diameter of growth inhibition zone at 100 ug/ml after 18-24 hr by agar cup diffusion method; conditions: read-out: DIZ
# Streptococcus pyogenes [34] = assay: Antimicrobial activity against Streptococcus pyogenes MTCC 442 assessed as diameter of growth inhibition zone at 250 ug/ml after 18-24 hr by agar cup diffusion method; conditions: read-out: DIZ
# Penicillium [35] = assay: Antimicrobial activity against Penicillium wild strain assessed as diameter of growth inhibition zone at 50 ug/ml after 48-96 hr by agar cup diffusion method; conditions: read-out: DIZ
# Aspergillus clavatus [36] = assay: Antimicrobial activity against Aspergillus clavatus MTCC 1323 assessed as diameter of growth inhibition zone at 50 ug/ml after 48-96 hr by agar cup diffusion method; conditions: read-out: DIZ
# Klebsiella pneumoniae [37] = assay: Antimicrobial activity against Klebsiella pneumoniae MTCC 109 assessed as diameter of growth inhibition zone at 50 ug/ml after 18-24 hr by agar cup diffusion method; conditions: read-out: DIZ
# Pseudomonas aeruginosa [38] = assay: Antimicrobial activity against Pseudomonas aeruginosa MTCC 1688 assessed as diameter of growth inhibition zone at 250 ug/ml after 18-24 hr by agar cup diffusion method; conditions: read-out: DIZ
# Staphylococcus aureus [39] = assay: Antimicrobial activity against Staphylococcus aureus MTCC 96 assessed as diameter of growth inhibition zone at 250 ug/ml after 18-24 hr by agar cup diffusion method; conditions: read-out: DIZ
# Candida albicans [40] = assay: Antimicrobial activity against Candida albicans MTCC 227 assessed as diameter of growth inhibition zone at 250 ug/ml after 48-96 hr by agar cup diffusion method; conditions: read-out: DIZ
# Penicillium [41] = assay: Antimicrobial activity against Penicillium wild strain by agar cup diffusion method
# Trichophyton rubrum [42] = assay: Antimicrobial activity against Trichophyton rubrum MTCC 296 assessed as diameter of growth inhibition zone at 100 ug/ml after 48-96 hr by agar cup diffusion method; conditions: read-out: DIZ
# Escherichia coli [43] = assay: Antimicrobial activity against Escherichia coli MTCC 443 assessed as diameter of growth inhibition zone at 50 ug/ml after 18-24 hr by agar cup diffusion method; conditions: read-out: DIZ
# Penicillium [44] = assay: Antimicrobial activity against Penicillium wild strain assessed as diameter of growth inhibition zone at 25 ug/ml after 48-96 hr by agar cup diffusion method; conditions: read-out: DIZ
# Klebsiella pneumoniae [45] = assay: Antimicrobial activity against Klebsiella pneumoniae MTCC 109 assessed as diameter of growth inhibition zone at 250 ug/ml after 18-24 hr by agar cup diffusion method; conditions: read-out: DIZ
structure (smiles),measurement,setting,value
O=C(/C=C/c1ccc([N+](=O)[O-])cc1)C1C(=O)NC(=S)NC1=O,zone of inhibition at 100 µg/mL,Candida albicans [1],25 mm
same,MBC,Streptococcus pyogenes [2],100 µg/mL
same,MIC,Streptococcus pyogenes [2],100 µg/mL
same,zone of inhibition at 25 µg/mL,Escherichia coli [3],12 mm
same,MBC,Escherichia coli [4],500 µg/mL
same,MIC,Escherichia coli [4],250 µg/mL
same,zone of inhibition at 25 µg/mL,Klebsiella pneumoniae [5],11 mm
same,MFC,Aspergillus clavatus [6],1000 µg/mL
same,MIC,Aspergillus clavatus [6],1000 µg/mL
same,zone of inhibition at 25 µg/mL,Streptococcus pyogenes [7],12 mm
same,zone of inhibition at 250 µg/mL,Aspergillus clavatus [8],24 mm
same,zone of inhibition at 50 µg/mL,Candida albicans [9],21 mm
same,zone of inhibition at 250 µg/mL,Escherichia coli [10],23 mm
same,zone of inhibition at 100 µg/mL,Pseudomonas aeruginosa [11],18 mm
same,MBC,Klebsiella pneumoniae [12],200 µg/mL
same,MIC,Klebsiella pneumoniae [12],200 µg/mL
same,MFC,Candida albicans [13],1000 µg/mL
same,MIC,Candida albicans [13],1000 µg/mL
same,zone of inhibition at 25 µg/mL,Staphylococcus aureus [14],11 mm
same,zone of inhibition at 25 µg/mL,Candida albicans [15],20 mm
same,zone of inhibition at 25 µg/mL,Pseudomonas aeruginosa [16],11 mm
same,zone of inhibition at 100 µg/mL,Penicillium [17],23 mm
same,zone of inhibition at 100 µg/mL,Streptococcus pyogenes [18],19 mm
same,MBC,Staphylococcus aureus [19],200 µg/mL
same,MIC,Staphylococcus aureus [19],125 µg/mL
same,MBC,Pseudomonas aeruginosa [20],250 µg/mL
same,MIC,Pseudomonas aeruginosa [20],250 µg/mL
same,MFC,Trichophyton rubrum [21],1000 µg/mL
same,MIC,Trichophyton rubrum [21],1000 µg/mL
same,zone of inhibition at 100 µg/mL,Escherichia coli [22],19 mm
same,zone of inhibition at 250 µg/mL,Penicillium [23],25 mm
same,zone of inhibition at 50 µg/mL,Staphylococcus aureus [24],13 mm
same,zone of inhibition at 50 µg/mL,Streptococcus pyogenes [25],15 mm
same,zone of inhibition at 25 µg/mL,Trichophyton rubrum [26],20 mm
same,zone of inhibition at 50 µg/mL,Pseudomonas aeruginosa [27],13 mm
same,zone of inhibition at 100 µg/mL,Aspergillus clavatus [28],22 mm
same,zone of inhibition at 100 µg/mL,Staphylococcus aureus [29],18 mm
same,zone of inhibition at 50 µg/mL,Trichophyton rubrum [30],22 mm
same,zone of inhibition at 250 µg/mL,Trichophyton rubrum [31],25 mm
same,zone of inhibition at 25 µg/mL,Aspergillus clavatus [32],20 mm
same,zone of inhibition at 100 µg/mL,Klebsiella pneumoniae [33],15 mm
same,zone of inhibition at 250 µg/mL,Streptococcus pyogenes [34],23 mm
same,zone of inhibition at 50 µg/mL,Penicillium [35],21 mm
same,zone of inhibition at 50 µg/mL,Aspergillus clavatus [36],21 mm
same,zone of inhibition at 50 µg/mL,Klebsiella pneumoniae [37],13 mm
same,zone of inhibition at 250 µg/mL,Pseudomonas aeruginosa [38],20 mm
same,zone of inhibition at 250 µg/mL,Staphylococcus aureus [39],20 mm
same,zone of inhibition at 250 µg/mL,Candida albicans [40],25 mm
same,MFC,Penicillium [41],500 µg/mL
same,MIC,Penicillium [41],500 µg/mL
same,zone of inhibition at 100 µg/mL,Trichophyton rubrum [42],23 mm
same,zone of inhibition at 50 µg/mL,Escherichia coli [43],15 mm
same,zone of inhibition at 25 µg/mL,Penicillium [44],21 mm
same,zone of inhibition at 250 µg/mL,Klebsiella pneumoniae [45],16 mm
